Results taken from ChEMBL document CHEMBL1208683, “Insights into binding modes of adenosine A(2B) antagonists with ligand-based and receptor-based methods” (Eur J Med Chem, 2010).

Key:
[1] = molecular target: T1, Adenosine receptor A3 (Homo sapiens, UniProt P0DMS8)
T1 sequence (P0DMS8 whole entry): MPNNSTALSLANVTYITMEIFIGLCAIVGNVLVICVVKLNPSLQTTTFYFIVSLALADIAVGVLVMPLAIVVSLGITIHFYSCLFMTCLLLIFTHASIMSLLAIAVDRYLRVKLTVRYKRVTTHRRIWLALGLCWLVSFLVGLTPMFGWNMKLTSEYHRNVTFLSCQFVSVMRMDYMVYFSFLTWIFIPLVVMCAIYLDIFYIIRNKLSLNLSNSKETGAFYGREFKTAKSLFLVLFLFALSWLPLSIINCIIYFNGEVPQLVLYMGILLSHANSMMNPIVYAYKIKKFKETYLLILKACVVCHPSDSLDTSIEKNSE
Description: Antagonist activity against human adenosine A3 receptor

[2] = molecular target: T2, Adenosine receptor A1 (Rattus norvegicus, UniProt P25099); assay: Antagonist activity against rat adenosine A1 receptor; type: functional
T2 sequence (P25099 whole entry): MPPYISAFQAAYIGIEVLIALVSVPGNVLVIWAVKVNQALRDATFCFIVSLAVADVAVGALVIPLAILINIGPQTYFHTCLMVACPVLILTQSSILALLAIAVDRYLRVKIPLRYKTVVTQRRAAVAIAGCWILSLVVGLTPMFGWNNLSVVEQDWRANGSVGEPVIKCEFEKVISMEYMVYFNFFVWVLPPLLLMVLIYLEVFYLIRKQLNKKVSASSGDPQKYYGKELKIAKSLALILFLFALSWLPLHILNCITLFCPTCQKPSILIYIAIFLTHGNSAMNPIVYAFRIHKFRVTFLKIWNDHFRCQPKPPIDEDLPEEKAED

[3] = molecular target: Adenosine receptor A2a (Rattus norvegicus, UniProt P30543); assay: Antagonist activity against rat adenosine A2A receptor; type: functional
Sequence of Adenosine receptor A2a (Rattus norvegicus, UniProt P30543) (P30543 whole entry): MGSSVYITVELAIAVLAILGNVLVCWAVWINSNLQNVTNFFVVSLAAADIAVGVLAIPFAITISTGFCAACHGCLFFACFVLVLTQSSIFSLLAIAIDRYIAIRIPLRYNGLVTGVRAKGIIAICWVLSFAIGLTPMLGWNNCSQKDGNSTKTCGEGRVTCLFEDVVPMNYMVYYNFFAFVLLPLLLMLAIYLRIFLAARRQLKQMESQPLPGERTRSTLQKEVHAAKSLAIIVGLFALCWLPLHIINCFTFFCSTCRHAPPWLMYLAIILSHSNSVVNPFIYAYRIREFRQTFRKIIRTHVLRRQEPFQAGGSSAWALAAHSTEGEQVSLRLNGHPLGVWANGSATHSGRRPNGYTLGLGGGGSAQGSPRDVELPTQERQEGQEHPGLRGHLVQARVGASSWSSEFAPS

[4] = molecular target: T3, Adenosine receptor A2b (Homo sapiens, UniProt P29275)
T3 sequence (P29275 whole entry): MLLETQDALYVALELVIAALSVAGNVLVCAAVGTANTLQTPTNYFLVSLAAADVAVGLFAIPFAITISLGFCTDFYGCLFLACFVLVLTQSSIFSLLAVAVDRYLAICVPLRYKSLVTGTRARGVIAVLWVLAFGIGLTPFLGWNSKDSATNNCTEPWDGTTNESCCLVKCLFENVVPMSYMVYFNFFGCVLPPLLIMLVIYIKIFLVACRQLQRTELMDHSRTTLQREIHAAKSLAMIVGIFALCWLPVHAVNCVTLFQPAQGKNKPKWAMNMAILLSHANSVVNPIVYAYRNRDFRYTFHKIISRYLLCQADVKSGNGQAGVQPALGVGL
Description: Antagonist activity against human adenosine A2B receptor

[5] = molecular target: T4, Adenosine receptor A2a (Homo sapiens, UniProt P29274)
T4 sequence (P29274 whole entry): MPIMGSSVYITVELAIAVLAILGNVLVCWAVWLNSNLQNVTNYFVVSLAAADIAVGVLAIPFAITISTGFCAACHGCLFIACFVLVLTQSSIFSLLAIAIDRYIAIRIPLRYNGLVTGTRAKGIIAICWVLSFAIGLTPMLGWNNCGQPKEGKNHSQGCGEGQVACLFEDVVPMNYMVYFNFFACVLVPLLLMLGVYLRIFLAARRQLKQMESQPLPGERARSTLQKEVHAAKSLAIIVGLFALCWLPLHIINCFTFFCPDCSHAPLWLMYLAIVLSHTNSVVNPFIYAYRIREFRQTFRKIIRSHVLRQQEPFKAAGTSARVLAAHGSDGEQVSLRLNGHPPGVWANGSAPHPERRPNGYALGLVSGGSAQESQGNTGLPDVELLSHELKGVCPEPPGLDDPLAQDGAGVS
Description: (§1) Antagonist activity against human adenosine A2A receptor

[6] = molecular target: T5, Adenosine receptor A1 (Homo sapiens, UniProt P30542)
T5 sequence (P30542 whole entry): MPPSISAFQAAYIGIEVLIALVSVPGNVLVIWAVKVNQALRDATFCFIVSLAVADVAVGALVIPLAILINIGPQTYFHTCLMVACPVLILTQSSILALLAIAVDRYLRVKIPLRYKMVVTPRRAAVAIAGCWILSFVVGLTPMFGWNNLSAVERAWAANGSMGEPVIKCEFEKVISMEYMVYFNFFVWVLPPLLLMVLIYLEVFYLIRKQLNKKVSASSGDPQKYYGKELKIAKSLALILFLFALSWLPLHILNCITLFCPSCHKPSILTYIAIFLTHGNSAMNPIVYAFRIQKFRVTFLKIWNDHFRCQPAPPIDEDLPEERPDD
Description: Antagonist activity against human adenosine A1 receptor

[7] = molecular target: T4, Adenosine receptor A2a; remark: listed apart in the source
Description: as §1

Cn1c(=O)c2[nH]c(-c3ccc(S(=O)(=O)NCC(=O)O)cc3)nc2n(C)c1=O
Ki [1]: > 10000 nM

CCOc1cccc2c(C)nc(N=C(N)N)nc12
Ki [2]: 1330 nM
Ki [3]: 624 nM
Ki [4]: 1780 nM

CCCn1c(=O)c2nc(-c3cnn(Cc4cc(C(F)(F)F)ccc4Cl)c3)[nH]c2n(CCC)c1=O
Ki [1]: 54 nM

Cn1c(=O)c2c(nc(-c3ccccc3)n2O)n(C)c1=O
Ki [1]: > 9000 nM
Ki [4]: 1660 nM
Activity [5]: 12%

COc1ccc2c(C)nc(NC3=NCC(=O)N3)nc2c1
Ki [2]: 1290 nM
Ki [3]: 2400 nM
Ki [4]: 112 nM

CCCn1c(=O)[nH]c2[nH]c(-c3ccc(S(=O)(=O)NCc4ccccc4)cc3)nc2c1=O
Ki [1]: > 1000 nM

Nc1nc(-n2cncn2)c2nnn(Cc3ccccc3F)c2n1
Ki [6]: 2960 nM
Ki [1]: 2810 nM
Ki [4]: 1290 nM
Ki [7]: 400 nM
